According to patent US11261190B2, “Dihydropyrimidine compounds and uses thereof in medicine” (SUNSHINE LAKE PHARMA CO., LTD., priority 2017, dated 2022):
Read-outs that look alike come from different tables or passages of the source.

Experiments:
HBV [1] = test: Anti HBV activity in vitro, viral DNA from HepG2.2.15 cells quantified by qPCR; format: cell-based; conditions: qPCR of viral DNA in supernatant, read-out: EC50 against HBV replication
Method: Test 1: Test Method of EC50 of Anti HBV
HBV Cell Line and Culture Conditions
HepG2.2.15 (SELLS, PNAS, 1987 and SELLS, JV, 1988) chromosomes have an integrated complete HBV genome, and stably express viral RNA and viral protein. HepG2.2.15 cells can secrete mature HBV particles, HBsAg and HBeAg to medium. HepG2.2.15 cells were cultured in DMEM containing 10% fetal bovine serum, 100 U/mL penicillin, 100 U/mL streptomycin, 1% non essential amino acid, 1 mM sodium pyruvate and 300 µg/mL G418.
Viral particles DNA secreted from HepG2.2.15 cells can be quantified by qPCR, and the effect of the compound on viral replication can be detected.
Test of Anti HBV Activity In Vitro
8000 HepG 2.2.15 cells per well were seeded into a 96-well plate, the plate was cultured at 37° C. and 5% CO2 for 3 days till the cells grew to full wells. Old liquid medium can be removed and replaced with new medium (200 μL) on day 0.
Formulating the compound and treating the cells in the experiment of anti virus: the compound was dissolved in DMSO to a concentration of 30 mM, and then the compound solution was diluted with DMSO to a concentration of […], and then eight dilutions at 4 fold were performed, the highest concentration is 800 μM. The serial diluted compound was added to the above plate at 1 μL per well, the highest final concentration in the experiment is 4 μM (200 fold dilution). TDF (tenofovir dipiroxil fumarate, Selleck, Cat S1400) has a highest concentration of 4 μM as a positive control. 1 μL of DMSO was added in to the positive control well at a final concentration of 0.5%, TDF was added in to the positive control well at a final concentration of 1 μM.
Detection of Viral Genomic DNA by qPCR
Primer: HBV-For-202, […]; HBV-Rev-315, […]. Copies of virus can be calculated using a standard curve plotted by using plasmid containing HBV genome and using SYBR Premix Ex Taq II Takara DRR081S kit and 1 μL cell culture supernatant as a template. EC50 values of the compound on viral replication were calculated by a four parametric nonlinear regression model using Graphpad Prism 5 software to manage concentration—viral copy number.

[2] = Cytotoxicity in HepG2.2.15 cells (CellTiter Glo); format: cell-based; conditions: human, highest concentration 150 μM
Method: (§1) Test 2: Cytotoxicity and Selectivity Index
(§2) Methods of Testing Cytotoxicity and Selectivity Index
(§3) The serial diluted compound was added to a 384 wells plate at 50 μL HepG2.2.15 cell per well (3000 cells per well), the highest final concentration in the experiment is 150 μM (200 fold dilution). The plate was cultured at 37° C. in an incubator with C02 for 4 days, and cytotoxicity of the compound was detected using CellTiter Glo agent.
(§4) The cytotoxicity of the compound was calculated using the following formulate, cytotoxicity (%)=100−(detection value/mean of DMSO control wells values×100). CC50 values were calculated by a four parametric nonlinear regression model using Graphpad Prism 5 software to manage concentration−cytotoxicity (%). […]

PK test on SD rats = format: in vivo; conditions: for AUC(0-inf) / AUC(0-t) / Tmax: male, rat, plasma
Method: The PK test method of the compound in vivo of SD rats (purchased from Hunan slack Jing Da laboratory animal Co., Ltd, weight: […] male, ages of 2-3 months, 3 per oral group, 3 per intravenous injection group):
The Rats were administered intragastrically with the test compound at doses of 2.5 mg/kg or 5 mg/kg or administered intravenously with the test compound at doses of 1 mg/kg.
Blood samples were taken at 0.083, 0.25, 0.5, 1, 2, 5, 7 and 24 hours from vein after the administration, and collected in anticoagulation tube with EDTA-K2. The test compounds were extracted from plasma samples by liquid-liquid extraction. Then quantitative analysis was performed on a triple-quadrupole tandem mass spectrometer using multiple reaction monitoring (MRM). Pharmacokinetic parameters were calculated using a noncompartmental method by WinNonLin 6.3 software.

HepG2.2.15 cells = test: Cytotoxicity in HepG2.2.15 cells (CellTiter Glo); format: cell-based; conditions: 4 days, highest concentration 150 μM
Method: as §1, §2, §3, §4

HBV [3] = conditions: Science, 2003, 299, 893-896; cited from earlier work

Structure (SMILES): COC(=O)C1=C(CN2CCN3C(=O)N(c4ccc(CCC(=O)O)cc4)C[C@@H]3C2)NC(c2nccs2)=N[C@H]1c1ccc(F)cc1Cl [Example 13, 3-(4-((S)-7-(((R)-6-(2-chloro-4-fluorophenyl)-5-(methoxycarbonyl)-2-(thiazol-2-yl)-3,6-dihydropyrimidin-4-yl)methyl)-3-oxohexahydroimidazo[1,5-a]pyrazin-2(3H)-yl)phenyl)propionic Acid]
- EC50 (HBV [1]; Hepatitis B virus): 4 nM
- CC50 at 4 days [2]: > 150000 nM
- AUC(0-inf) (PK test on SD rats; iv, 1 mg/kg): 1320 ng·h/mL
- AUC(0-t) (PK test on SD rats; iv, 1 mg/kg): 1320 ng·h/mL
- Tmax (PK test on SD rats; iv, 1 mg/kg): 4.98 min
- AUC(0-inf) (PK test on SD rats; po, 5 mg/kg): 3080 ng·h/mL
- AUC(0-t) (PK test on SD rats; po, 5 mg/kg): 3050 ng·h/mL
- Tmax (PK test on SD rats; po, 5 mg/kg): 30 min
- F (PK test on SD rats; po, 5 mg/kg): 31.2%

Structure (SMILES): COC(=O)C1=C(CN2CCN3C(=O)N(c4ccc(CC(=O)O)cc4)C[C@@H]3C2)NC(c2nccs2)=N[C@H]1c1ccc(F)cc1Cl [Example 14, 2-(4-((S)-7-(((R)-6-(2-chloro-4-fluorophenyl)-5-(methoxycarbonyl)-2-(thiazol-2-yl)-3,6-dihydropyrimidin-4-yl)methyl)-3-oxohexahydroimidazo[1,5-a]pyrazin-2(3H)-yl)phenyl)acetic Acid]
- EC50 (HBV [1]; Hepatitis B virus): 7 nM
- CC50 at 4 days [2]: > 150000 nM
- AUC(0-inf) (PK test on SD rats; iv, 1 mg/kg): 684 ng·h/mL
- AUC(0-t) (PK test on SD rats; iv, 1 mg/kg): 680 ng·h/mL
- Tmax (PK test on SD rats; iv, 1 mg/kg): 4.98 min
- AUC(0-inf) (PK test on SD rats; po, 5 mg/kg): 2250 ng·h/mL
- AUC(0-t) (PK test on SD rats; po, 5 mg/kg): 2250 ng·h/mL
- Tmax (PK test on SD rats; po, 5 mg/kg): 30 min
- F (PK test on SD rats; po, 5 mg/kg): 44%

Structure (SMILES): COC(=O)C1=C(CN2CCN3C(=O)N(c4ccc(CC(C)(C)C(=O)O)cc4)C[C@@H]3C2)NC(c2nccs2)=N[C@H]1c1ccc(F)cc1Cl [Example 17, 3-(4-((S)-7-(((R)-6-(2-chloro-4-fluorophenyl)-5-(methoxycarbonyl)-2-(thiazol-2-yl)-3,6-dihydropyrimidin-4-yl)methyl)-3-oxohexahydroimidazo[1,5-a]pyrazin-2(3H)-yl)phenyl)-2,2-dimethylpropionic Acid]
- EC50 (HBV [1]; Hepatitis B virus): 4 nM
- CC50 at 4 days [2]: > 150000 nM
- AUC(0-inf) (PK test on SD rats; iv, 1 mg/kg): 979 ng·h/mL
- AUC(0-t) (PK test on SD rats; iv, 1 mg/kg): 977 ng·h/mL
- Tmax (PK test on SD rats; iv, 1 mg/kg): 4.98 min
- AUC(0-inf) (PK test on SD rats; po, 5 mg/kg): 5580 ng·h/mL
- AUC(0-t) (PK test on SD rats; po, 5 mg/kg): 4710 ng·h/mL
- Tmax (PK test on SD rats; po, 5 mg/kg): 60 min
- F (PK test on SD rats; po, 5 mg/kg): 114.1%

Structure (SMILES): COC(=O)C1=C(CN2CCN3C(=O)N(c4ccc(C(C)CC(=O)O)cc4)C[C@@H]3C2)NC(c2nccs2)=N[C@H]1c1ccc(F)cc1Cl (stereo partly drawn) [Example 19, 3-(4-((S)-7-(((R)-6-(2-chloro-4-fluorophenyl)-5-(methoxycarbonyl)-2-(thiazol-2-yl)-3,6-dihydropyrimidin-4-yl)methyl)-3-oxohexahydroimidazo[1,5-a]pyrazin-2(3H)-yl)phenyl) butanoic Acid]
- EC50 (HBV [1]; Hepatitis B virus): 3 nM
- CC50 at 4 days [2]: > 150000 nM
- AUC(0-inf) (PK test on SD rats; iv, 1 mg/kg): 5520 ng·h/mL
- AUC(0-t) (PK test on SD rats; iv, 1 mg/kg): 5520 ng·h/mL
- Tmax (PK test on SD rats; iv, 1 mg/kg): 4.98 min
- AUC(0-inf) (PK test on SD rats; po, 5 mg/kg): 20300 ng·h/mL
- AUC(0-t) (PK test on SD rats; po, 5 mg/kg): 20300 ng·h/mL
- Tmax (PK test on SD rats; po, 5 mg/kg): 30 min
- F (PK test on SD rats; po, 5 mg/kg): 73.4%

Structure (SMILES): CCOC(=O)C1=C(CN2CCN3C(=O)N(c4nc(CCC(=O)O)cs4)C[C@@H]3C2)NC(c2nccs2)=N[C@H]1c1ccc(F)cc1Br [Example 30]
- EC50 (HBV [1]): 12 nM
- CC50 (HepG2.2.15 cells): 133000 nM

Structure (SMILES): COC(=O)C1=C(CN2CCN3C(=O)N(c4ccc(C(NC(=O)OC(C)(C)C)C(=O)O)cc4)C[C@@H]3C2)NC(c2nccs2)=N[C@H]1c1ccc(F)cc1Cl (stereo partly drawn) [Example 46, 2-((tert-butoxycarbonyl)amino)-2-(4-((S)-7-(((R)-6-(2-chloro-4-fluorophenyl)-5-(methoxycarbonyl)-2-(thiazol-2-yl)-3,6-dihydropyrimidin-4-yl)methyl)-3-oxohexahydroimidazo[1,5-a]pyrazin-2(3H)-yl)phenyl)acetic Acid]
- EC50 (HBV [1]; Hepatitis B virus): 22 nM
- CC50 at 4 days [2]: > 150000 nM

Structure (SMILES): COC(=O)C1=C(CN2CCN3C(=O)N(c4ccc(/C=C/C(=O)O)cc4)C[C@@H]3C2)NC(c2nccs2)=N[C@H]1c1ccc(F)cc1Cl [Example 47, (E)-3-(4-((S)-7-(((R)-6-(2-chloro-4-fluorophenyl)-5-(methoxycarbonyl)-2-(thiazol-2-yl)-3,6-dihydropyrimidin-4-yl)methyl)-3-oxohexahydroimidazo[1,5-a]pyrazin-2(3H)-yl)phenyl)acrylic Acid]
- EC50 (HBV [1]; Hepatitis B virus): 3 nM
- CC50 at 4 days [2]: > 150000 nM

Structure (SMILES): COC(=O)C1=C(CN2CCN3C(=O)N(c4ccc(CCC(N)=O)cc4)C[C@@H]3C2)NC(c2nccs2)=N[C@H]1c1ccc(F)cc1Cl [Example 48, (R)-methyl 6-(((S)-2-(4-(3-amino-3-oxopropyl)phenyl)-3-oxohexahydroimidazo[1,5-a]pyrazin-7(1H)-yl)methyl)-4-(2-chloro-4-fluorophenyl)-2-(thiazol-2-yl)-1,4-dihydropyrimidine-5-carboxylate]
- EC50 (HBV [1]; Hepatitis B virus): 10 nM
- CC50 at 4 days [2]: > 150000 nM

Structure (SMILES): COC(=O)C1=C(CN2CCN3C(=O)N(c4ccc(CCCNS(C)(=O)=O)cc4)C[C@@H]3C2)NC(c2nccs2)=N[C@H]1c1ccc(F)cc1Cl [Example 49, (R)-methyl 4-(2-chloro-4-fluorophenyl)-6-(((S)-2-(4-(3-(methylsulfonylamino)propyl)phenyl)-3-oxohexahydroimidazo[1,5-a]pyrazin-7(1H)-yl)methyl)-2-(thiazol-2-yl)-1,4-dihydropyrimidin-5-carboxylate]
- EC50 (HBV [1]; Hepatitis B virus): 12 nM
- CC50 at 4 days [2]: > 150000 nM

Structure (SMILES): COC[C@@H]1[C@H]2CN(c3ccc(CCC(=O)O)cc3)C(=O)N2CCN1CC1=C(C(=O)OC)[C@H](c2ccc(F)cc2Cl)N=C(c2nccs2)N1 [Example 51B]
- EC50 (HBV [1]; Hepatitis B virus): 9 nM
- CC50 at 4 days [2]: > 150000 nM

Structure (SMILES): COC(=O)C1=C(CN2CCN3C(=O)N(c4nc(/C=C/C(=O)O)cs4)C[C@@H]3C2)NC(c2nccs2)=N[C@H]1c1ccc(F)cc1Cl [Example 52, (E)-3-(2-((S)-7-(((R)-6-(2-chloro-4-fluorophenyl)-5-(methoxycarbonyl)-2-(thiazol-2-yl)-3,6-dihydropyrimidin-4-yl)methyl)-3-oxohexahydroimidazo[1,5-a]pyrazin-2(3H)-yl)-thiazol-4-yl)acrylic Acid]
- EC50 (HBV [1]; Hepatitis B virus): 13 nM
- CC50 at 4 days [2]: > 150000 nM

Structure (SMILES): COC(=O)C1=C(CN2CCN3C(=O)N(c4ccc(/C=C(\C)C(=O)O)cc4)C[C@@H]3C2)NC(c2nccs2)=N[C@H]1c1ccc(F)cc1Cl [Example 53, (E)-3-(4-((S)-7-(((R)-6-(2-chloro-4-fluorophenyl)-5-(methoxycarbonyl)-2-(thiazol-2-yl)-3,6-dihydropyrimidin-4-yl)methyl)-3-oxohexahydroimidazo[1,5-a]pyrazin-2(3H)-yl)phenyl)-2-methylacrylic Acid]
- EC50 (HBV [1]; Hepatitis B virus): 14 nM
- CC50 at 4 days [2]: > 150000 nM

Structure (SMILES): COC(=O)C1=C(CN2CCN3C(=O)N(c4ccc(/C(C)=C/C(=O)O)cc4)C[C@@H]3C2)NC(c2nccs2)=N[C@H]1c1ccc(F)cc1Cl [Example 54, (E)-3-(4-((S)-7-(((R)-6-(2-chloro-4-fluorophenyl)-5-(methoxycarbonyl)-2-(thiazol-2-yl)-3,6-dihydropyrimidin-4-yl)methyl)-3-oxohexahydroimidazo[1,5-a]pyrazin-2(3H)-yl)phenyl)-2-butenoic Acid]
- EC50 (HBV [1]; Hepatitis B virus): 11 nM
- CC50 at 4 days [2]: > 150000 nM

Structure (SMILES): COC(=O)C1=C(CN2CCN3C(=O)N(c4ccc(CCC(=O)O)cc4)C[C@@H]3[C@H]2CO)NC(c2nccs2)=N[C@H]1c1ccc(F)cc1Cl [Example 59B]
- EC50 (HBV [1]; Hepatitis B virus): 15 nM
- CC50 at 4 days [2]: > 150000 nM

Structure (SMILES): Nc1ccn([C@@H]2CS[C@H](CO)O2)c(=O)n1 [lamivudine]
- IC50 (HBV [3]): 300 nM
